# Data from US7759345B2, “Antitumoral derivatives of ET-743” (priority 2001, dated 2010).
# pIC50: −log10 of the molar value. Where two headings read alike, the source gives them in different places.
# Key:
# K-562 = assay: Inhibition of cells growth by colorimetric assay (SRB), K-562; assay type: cell-based
# In short: (§1)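 Human cancer cells (5×10^3/well) attached 18 h in RPMI 1640 10% FBS, then exposed 48 h at 37°C to compounds from 10 to 10^−8 μg/ml in DMSO/EtOH/PBS. TCA-fixed, SRB-stained, OD read at 490 nm; GI, TGI and LC derived from triplicate wells.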
# A-549 [1] = assay: Inhibition of cells growth by colorimetric assay (SRB), A-549; assay type: cell-based
# In short: as §1
# SK-MEL-28 = assay: Inhibition of cells growth by colorimetric assay (SRB), SK-MEL-28; assay type: cell-based
# In short: as §1
# HT-29 [2] = assay: Inhibition of cells growth by colorimetric assay (SRB), HT-29; assay type: cell-based
# In short: as §1
# LoVo = assay: Inhibition of cells growth by colorimetric assay (SRB), LoVo; assay type: cell-based
# In short: as §1
# LoVo-Dox = assay: Inhibition of cells growth by colorimetric assay (SRB), LoVo-Dox; assay type: cell-based
# In short: as §1
# DU-145 [3] = assay: Inhibition of cells growth by colorimetric assay (SRB), DU-145; assay type: cell-based
# In short: as §1
# LNCaP = assay: Inhibition of cells growth by colorimetric assay (SRB), LNCaP; assay type: cell-based; details: SRB, 48 hours exposure
# In short: as §1
# SK-BR-3 = assay: Inhibition of cells growth by colorimetric assay (SRB), SK-BR-3; assay type: cell-based
# In short: as §1
# IGROV-1 = assay: Inhibition of cells growth by colorimetric assay (SRB), IGROV-1; assay type: cell-based
# In short: as §1
# IGROV-ET = assay: Inhibition of cells growth by colorimetric assay (SRB), IGROV-ET; assay type: cell-based
# In short: as §1
# SK-OV-3 = assay: Inhibition of cells growth by colorimetric assay (SRB), SK-OV-3; assay type: cell-based
# In short: as §1
# PANC-1 = assay: Inhibition of cells growth by colorimetric assay (SRB), PANC-1; assay type: cell-based
# In short: as §1
# HMEC1 = assay: Inhibition of cells growth by colorimetric assay (SRB), HMEC1; assay type: cell-based
# In short: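 Growth inhibition is measured by sulforhodamine B staining of TCA-fixed cells after 48 h of compound exposure across 10 to 10^−8 μg/ml. Cells are seeded at 5×10^3 per well and grown drug-free for 18 h beforehand; absorbance at 490 nm yields GI, TGI and LC values.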
# Liver [4] = assay: In vitro toxicity, Liver
# From the text: (§3) Toxicity was asssessed by the methods reported in Toxicology in Vitro, 15 (2001) 571-577, J. Luber Narod et al.: “Evaluation of the use of in vitro methodolodies as tools for screening new compounds for potential in vivo toxicity”.
# Heart [5] = assay: In vitro toxicity, Heart
# From the text: as §3
# Myelo [6] = assay: In vitro toxicity, Myelo
# From the text: as §3
# Kidney [7] = assay: In vitro toxicity, Kidney
# From the text: as §3
# Skeletal [8] = assay: In vitro toxicity, Skeletal
# From the text: as §3
# P-388 = assay: Inhibition of cell growth by counting cells, P-388; assay type: cell-based, mouse; details: Mus musculus, P388, 72 h; three days of incubation; read-out: IC50 (molar) P-388
# In short: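 Mouse P-388 lymphoid neoplasm suspension cells seeded at 1×10^4 cells/well in EMEM 5% FCS containing graded sample concentrations, in duplicate alongside drug-free growth controls. Cells counted by Coulter counter; % growth vs untreated gives dose-response curves, IC50 = concentration producing 50% growth inhibition.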
# A-549 [9] = assay: Inhibition of cell growth by counting cells, A-549; assay type: cell-based, human; details: Homo sapiens, A549, 72 h; three days of incubation; read-out: IC50 (molar) A-549
# In short: (§2)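 Monolayer lines were plated at 1×10^4 cells per well with compound in medium containing 5% FCS. After a 3-day incubation at 37° C, crystal violet staining gave an approximate IC50, and cell counting of duplicate wells gave the dose-response IC50.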
# HT-29 [10] = assay: Inhibition of cell growth by counting cells, HT-29; assay type: cell-based, human; details: Homo sapiens, HT-29, 72 h; three days of incubation; read-out: IC50 (molar) HT-29
# In short: as §2
# MEL-28 = assay: Inhibition of cell growth by counting cells, MEL-28; assay type: cell-based, human; details: Homo sapiens, SK-MEL-28, 72 h; three days of incubation; read-out: IC50 (molar) MEL-28
# In short: as §2
# DU-145 [11] = assay: Inhibition of cell growth by counting cells, DU-145; assay type: cell-based, human; details: Homo sapiens, DU-145, 72 h; three days of incubation; read-out: IC50 (molar) DU-145
# In short: as §2
# tumor cell culture = assay: Bioassays for antitumor screening, cell line not given; assay type: cell-based; details: cell line not stated
# From the text: Bioassays for Antitumor Screening
# The finality of these assays is to interrupt the growth of a “in vitro” tumor cell culture by means a continued exhibition of the cells to the sample to be testing.
# Liver [12] = test system: Liver
# From the text: as §3
# Heart [13] = test system: Heart
# From the text: as §3
# Myelo [14] = test system: Myelo
# From the text: as §3
# Skeletal [15] = test system: Skeletal
# From the text: as §3
# Kidney [16] = test system: Kidney
# From the text: as §3
compound,measurement,setting,value
COc1cc2c(cc1OC(=O)C(F)(F)C(F)(F)C(F)(F)F)CCN[C@]21CS[C@@H]2c3c(OC(C)=O)c(C)c4c(c3[C@H](COC1=O)N1C2[C@H]2c3c(cc(C)c(OC)c3O)C[C@@H]([C@@H]1O)N2C)OCO4 (stereo partly shown) [Compound 74],GI50,"K-562; Homo sapiens, K562, 48 h, read-out: GI50 K-562",0.0526 nM
same,LC50 (50% cell killing),"K-562; Homo sapiens, K562, 48 h, read-out: LC50 K-562, K-562, SRB, 48 hours exposure",0.661 nM
same,TGI K-562,"K-562; K-562, SRB, 48 hours exposure",2.10E-10
same,TGI A-549,"A-549 [1]; A-549, SRB, 48 hours exposure",9.04E-10
same,GI50,"A-549 [1]; Homo sapiens, A549, 48 h, read-out: GI50 A-549",0.399 nM
same,LC50 (concentration for 50% cell killing),"A-549 [1]; Homo sapiens, A549, 48 h, read-out: LC50 A-549, A-549, SRB, 48 hours exposure",6.38 nM
same,GI50,"SK-MEL-28; Homo sapiens, SK-MEL-28, 48 h, read-out: GI50 MEL-28",0.275 nM
same,CC50,"SK-MEL-28; Homo sapiens, SK-MEL-28, 48 h, read-out: LC50 MEL-28, MEL-28, SRB, 48 hours exposure",0.994 nM
same,TGI MEL-28,"SK-MEL-28; MEL-28, SRB, 48 hours exposure",5.22E-10
same,TGI HT-29,"HT-29 [2]; HT-29, SRB, 48 hours exposure",8.35E-10
same,GI50,"HT-29 [2]; Homo sapiens, HT-29, 48 h, read-out: GI50 HT-29",0.354 nM
same,LC50 (concentration for 50% cell killing),"HT-29 [2]; Homo sapiens, HT-29, 48 h, read-out: LC50 HT-29, HT-29, SRB, 48 hours exposure",10400 nM
same,GI50,"LoVo; Homo sapiens, LoVo, 48 h, read-out: GI50 LOVO",0.369 nM
same,LC50 (concentration for 50% cell killing),"LoVo; Homo sapiens, LoVo, 48 h, read-out: LC50 LOVO, LOVO, SRB, 48 hours exposure",11 nM
same,TGI LOVO,"LoVo; LOVO, SRB, 48 hours exposure",1.16E-09
same,GI50,"LoVo-Dox; Homo sapiens, 48 h, read-out: GI50 LOVO-DOX",6.31 nM
same,CC50,"LoVo-Dox; Homo sapiens, 48 h, read-out: LC50 LOVO-DOX, LOVO-DOX, SRB, 48 hours exposure",359 nM
same,TGI LOVO-DOX,"LoVo-Dox; LOVO-DOX, SRB, 48 hours exposure",6.33E-08
same,TGI DU-145,"DU-145 [3]; DU-145, SRB, 48 hours exposure",7.61E-10
same,GI50,"DU-145 [3]; Homo sapiens, DU-145, 48 h, read-out: GI50 DU-145",0.366 nM
same,CC50,"DU-145 [3]; Homo sapiens, DU-145, 48 h, read-out: LC50 DU-145, DU-145, SRB, 48 hours exposure",2790 nM
same,GI50,"LNCaP; Homo sapiens, LNCaP, 48 h, read-out: GI50 LNCAP, LNCAP",0.129 nM
same,CC50,"LNCaP; Homo sapiens, LNCaP, 48 h, read-out: LC50 LNCAP, LNCAP",0.564 nM
same,TGI LNCAP,LNCaP; LNCAP,2.69E-10
same,GI50,"SK-BR-3; Homo sapiens, SK-BR-3, 48 h, read-out: GI50 SK-BR3",0.275 nM
same,CC50,"SK-BR-3; Homo sapiens, SK-BR-3, 48 h, read-out: LC50 SK-BR3, SK-BR3, SRB, 48 hours exposure",4.18 nM
same,TGI SK-BR3,"SK-BR-3; SK-BR3, SRB, 48 hours exposure",7.64E-10
same,GI50,"IGROV-1; Homo sapiens, IGROV-1, 48 h, read-out: GI50 IGROV",0.237 nM
same,CC50,"IGROV-1; Homo sapiens, IGROV-1, 48 h, read-out: LC50 IGROV, IGROV, SRB, 48 hours exposure",0.911 nM
same,TGI IGROV,"IGROV-1; IGROV, SRB, 48 hours exposure",4.65E-10
same,GI50,"IGROV-ET; Homo sapiens, 48 h, read-out: GI50 IGROV-ET",1.76 nM
same,CC50,"IGROV-ET; Homo sapiens, 48 h, read-out: LC50 IGROV-ET, IGROV-ET, SRB, 48 hours exposure",19.7 nM
same,TGI IGROV-ET,"IGROV-ET; IGROV-ET, SRB, 48 hours exposure",4.69E-09
same,GI50,"SK-OV-3; Homo sapiens, SK-OV-3, 48 h, read-out: GI50 SK-OV3",0.248 nM
same,LC50,"SK-OV-3; Homo sapiens, SK-OV-3, 48 h, read-out: LC50 SK-OV3, SK-OV3, SRB, 48 hours exposure",1.11 nM
same,TGI SK-OV3,"SK-OV-3; SK-OV3, SRB, 48 hours exposure",4.76E-10
same,GI50,"PANC-1; Homo sapiens, PANC-1, 48 h, read-out: GI50 PANC-1",0.313 nM
same,LC50 (concentration for 50% net cell kill),"PANC-1; Homo sapiens, PANC-1, 48 h, read-out: LC50 PANC-1, PANC-1, SRB, 48 hours exposure",2.55 nM
same,TGI PANC-1,"PANC-1; PANC-1, SRB, 48 hours exposure",6.77E-10
same,TGI HMEC-1,"HMEC1; HMEC-1, SRB, 48 hours exposure",1.45E-08
same,GI50,"HMEC1; Homo sapiens, HMEC-1, 48 h, read-out: GI50 HMEC-1",0.598 nM
same,LC50,"HMEC1; Homo sapiens, HMEC-1, 48 h, read-out: LC50 HMEC-1, HMEC-1, SRB, 48 hours exposure",4700 nM
same,Toxicity Data Liver,Liver [4],3.07E-08
same,Toxicity Data Heart,Heart [5],2.86E-08
same,Toxicity Data Myelo,Myelo [6],3.30E-08
same,Toxicity Data Kidney,Kidney [7],3.05E-08
same,Toxicity Data Skeletal,Skeletal [8],8.30E-10
CCCCCCCCCCCCCCCC(=O)Oc1c(C)c2c(c3c1[C@H]1SC[C@]4(NCCc5cc(O)c(OC)cc54)C(=O)OC[C@@H]3N3C1[C@H]1c4c(cc(C)c(OC)c4O)C[C@@H]([C@@H]3O)N1C)OCO2 (stereo partly shown) [Compound 170],pIC50,P-388,7.28
same,pIC50,A-549 [9],7.28
same,pIC50,HT-29 [10],7.28
same,pIC50,MEL-28,7.28
same,pIC50,DU-145 [11],7.28
same,antitumor activity (in words),tumor cell culture,active
same,Toxicity Data Liver,Liver [12],3.58E-07
same,Toxicity Data Heart,Heart [13],non toxic
same,Toxicity Data Myelo,Myelo [14],non toxic
same,Toxicity Data Skeletal,Skeletal [15],3.29E-07
same,Toxicity Data Kidney,Kidney [16],3.01E-07
